Experiment in all cases: microscale thermophoresis
The subject of assay [1] is Dm-HS-1 TAC ∆ s.c. (DNA, aptamer, no side-chain at 55 (codon 13 TAC); others as HFNAP: fluorophenyl at 19; allylamine at 22, 25, 37; alcohol at 28, 34, 49; phenol at 31, 46; cyclopentyl at 40; cyclopropyl at 43, 58; imidazole at 52, 61) GAAAGCAGGACTGGAGATCGATTCTGGTGCTGTTGATCTCCGCCATTGTGCTCCTACCCTTCACAGACCGAACTAGAGCTT
Particulars: 5 mM KCl, 1 mM MgCl2, 1 mM CaCl2 added to HBS-P+; HBS-P+ buffer, 25 °C.

Assay [2] relates to Dm-HS-7 (DNA, aptamer, HFNAP: side-chain on 5' nucleobase of each coding trinucleotide, positions 19,22,25,...,61 (codon key Figure 1B)) GAAAGCAGGACTGGAGATCGATTGCAGTTACGTTGCTAGTCCCCTTGATCACCTCCGTCACCTCAGACCGAACTAGAGCTT
Particulars: 5 mM KCl, 1 mM MgCl2, 1 mM CaCl2 added; HBS-P+ buffer, 25 °C.

The test system of assay [3] is Dm-CCS-4 (DNA, aptamer, HFNAP: side-chain on 5' nucleobase of each coding trinucleotide, positions 19,22,25,...,61 (codon key Figure 1B)) GAAAGCAGGACTGGAGATCGCTGACAGCGATCCCGACTGTGATCTTGCTGCTGCCTCTCGCGCCAGACCGAACTAGAGCTT
The conditions noted are these: 5 mM KCl, 1 mM MgCl2, 1 mM CaCl2 added; HBS-P+ buffer, 25 °C.

The test system of assay [4] is Dm-HS-1 TGC ∆ s.c. (DNA, aptamer, no side-chain at 28 and 49 (codons 4 and 11 TGC, alcohol 2x); others as HFNAP: fluorophenyl at 19; allylamine at 22, 25, 37; alcohol at 34; phenol at 31, 46; cyclopentyl at 40; cyclopropyl at 43, 58; imidazole at 52, 55, 61) GAAAGCAGGACTGGAGATCGATTCTGGTGCTGTTGATCTCCGCCATTGTGCTCCTACCCTTCACAGACCGAACTAGAGCTT
The conditions noted are these: 5 mM KCl, 1 mM MgCl2, 1 mM CaCl2 added to HBS-P+; HBS-P+ buffer, 25 °C.

Assay [5] concerns Dm-HS-5 ∆ s.c. (DNA, aptamer, none (no side-chains)) GAAAGCAGGACTGGAGATCGATTCTGGTGCTGTTGATCTCCGCCATTGTGCTCCTGCCCTTCACAGACCGAACTAGAGCTT
Particulars: 5 mM KCl, 1 mM MgCl2, 1 mM CaCl2 added; HBS-P+ buffer, 25 °C.

For assay [6], the system named is Dm-HS-5 (DNA, aptamer, HFNAP: side-chain on 5' nucleobase of each coding trinucleotide, positions 19,22,25,...,61 (codon key Figure 1B)) GAAAGCAGGACTGGAGATCGATTCTGGTGCTGTTGATCTCCGCCATTGTGCTCCTGCCCTTCACAGACCGAACTAGAGCTT
The conditions noted are these: 5 mM KCl, 1 mM MgCl2, 1 mM CaCl2 added; HBS-P+ buffer, 25 °C.

For assay [7], the system named is Dm-HS-2 ∆ s.c. (DNA, aptamer, none (no side-chains)) GAAAGCAGGACTGGAGATCTATGGTCGCATCGTTGACCCTTGTCCTGCCCCTGTCTCTCTCAACAGACCGAACTAGAGCTT
The conditions noted are these: 5 mM KCl, 1 mM MgCl2, 1 mM CaCl2 added; HBS-P+ buffer, 25 °C.

The test system of assay [8] is Dm-CVAE-without-selection-1 (DNA, aptamer, HFNAP: side-chain on 5' nucleobase of each coding trinucleotide, positions 19,22,25,...,61 (codon key Figure 1B)) GAAAGCAGGACTGGAGATCCGCATCGCTTATGCTGATCTTTTCCATATTGCCTTTCCTCCTACCAGACCGAACTAGAGCTT
The conditions noted are these: 5 mM KCl, 1 mM MgCl2, 1 mM CaCl2 added; HBS-P+ buffer, 25 °C.

In assay [9] the test system is Dm-CCS-1 (DNA, aptamer, HFNAP: side-chain on 5' nucleobase of each coding trinucleotide, positions 19,22,25,...,61 (codon key Figure 1B)) GAAAGCAGGACTGGAGATCCTTAATGGCAGCTCCAGCCCTAACCCTGCTGCTGCCTCTGCTGTCAGACCGAACTAGAGCTT
Particulars: 5 mM KCl, 1 mM MgCl2, 1 mM CaCl2 added; HBS-P+ buffer, 25 °C.

Assay [10] concerns Dm-HS-1 TGA ∆ s.c. (DNA, aptamer, as Dm-HS-1 but no side-chain at 34: fluorophenyl at 19; allylamine at 22,25,37; alcohol at 28,49; phenol at 31,46; cyclopentyl at 40; cyclopropyl at 43,58; imidazole at 52,55,61) GAAAGCAGGACTGGAGATCGATTCTGGTGCTGTTGATCTCCGCCATTGTGCTCCTACCCTTCACAGACCGAACTAGAGCTT
Particulars: 5 mM KCl, 1 mM MgCl2, 1 mM CaCl2 added; HBS-P+ buffer, 25 °C.

In assay [11] the test system is Dm-HS-1 TCT ∆ s.c. (DNA, aptamer, no side-chain at 37 (codon 7 TCT); others as HFNAP: fluorophenyl at 19; allylamine at 22, 25; alcohol at 28, 34, 49; phenol at 31, 46; cyclopentyl at 40; cyclopropyl at 43, 58; imidazole at 52, 55, 61) GAAAGCAGGACTGGAGATCGATTCTGGTGCTGTTGATCTCCGCCATTGTGCTCCTACCCTTCACAGACCGAACTAGAGCTT
The conditions noted are these: 5 mM KCl, 1 mM MgCl2, 1 mM CaCl2 added to HBS-P+; HBS-P+ buffer, 25 °C.

Assay [12] has as its system Dm-HS-8 (DNA, aptamer, HFNAP: side-chain on 5' nucleobase of each coding trinucleotide, positions 19,22,25,...,61 (codon key Figure 1B)) GAAAGCAGGACTGGAGATCGATTGCAGTTACGTCTCCCCTGCCCACCTTATTGCCATTCATAACAGACCGAACTAGAGCTT
Particulars: 5 mM KCl, 1 mM MgCl2, 1 mM CaCl2 added; HBS-P+ buffer, 25 °C.

For assay [13], the system named is Dm-HS-1 CCG ∆ s.c. (DNA, aptamer, no side-chain at 40 (codon 8 CCG); others as HFNAP: fluorophenyl at 19; allylamine at 22, 25, 37; alcohol at 28, 34, 49; phenol at 31, 46; cyclopropyl at 43, 58; imidazole at 52, 55, 61) GAAAGCAGGACTGGAGATCGATTCTGGTGCTGTTGATCTCCGCCATTGTGCTCCTACCCTTCACAGACCGAACTAGAGCTT
The conditions noted are these: 5 mM KCl, 1 mM MgCl2, 1 mM CaCl2 added to HBS-P+; HBS-P+ buffer, 25 °C.

In assay [14] the test system is Dm-HS-6 (DNA, aptamer, HFNAP: side-chain on 5' nucleobase of each coding trinucleotide, positions 19,22,25,...,61 (codon key Figure 1B)) GAAAGCAGGACTGGAGATTGGTAGTAACTGCTGTCCTGCTAATCATGCCGTTCACGCTGACCTCAGACCGAACTAGAGCTT
The conditions noted are these: 5 mM KCl, 1 mM MgCl2, 1 mM CaCl2 added; HBS-P+ buffer, 25 °C.

Take `COc1cccc2c1C(=O)c1c(O)c3c(c(O)c1C2=O)C[C@@](O)(C(C)=O)C[C@@H]3O[C@H]1C[C@H](N)[C@H](O)[C@H](C)O1`: the Kd in [1] is 21.7 ± 2.1 nM; in [2], 18.09 ± 5.2 nM; in [3], 8.5 ± 2.3 nM; in assay [4], 20.3 ± 4.4 nM; in assay [6], 6.16 ± 3.4 nM; in assay [8] it was 13.2 ± 3.2 nM. Besides, the Kd in assay [9] worked out at 16.7 ± 6.0 nM; in [10], 46.8 ± 4.8 nM; in assay [11] it was 12.9 ± 1.5 nM; in assay [12], 32.26 ± 8.9 nM; in [13], 21.9 ± 2.6 nM; in [14], 26.86 ± 4.2 nM. In addition, the “Kd ∆ side-chains” value stood at 4500 ± 210 nM in assay [5] and 1700 ± 170 nM in [7].

Values taken from publication PMC9352670 (2022).
